The source made the active and inactive calls. The calls are words filed in the database; no cut-off is given here.
Assays:
[1] = biological target: T1, Broad substrate specificity ATP-binding cassette transporter ABCG2 (Homo sapiens, UniProt Q9UNQ0); assay: Inhibition of ABCG2 (unknown origin) ATPase activity assessed as decrease in luminescence by firefly luciferase reporter assay
T1 sequence (Q9UNQ0 whole entry): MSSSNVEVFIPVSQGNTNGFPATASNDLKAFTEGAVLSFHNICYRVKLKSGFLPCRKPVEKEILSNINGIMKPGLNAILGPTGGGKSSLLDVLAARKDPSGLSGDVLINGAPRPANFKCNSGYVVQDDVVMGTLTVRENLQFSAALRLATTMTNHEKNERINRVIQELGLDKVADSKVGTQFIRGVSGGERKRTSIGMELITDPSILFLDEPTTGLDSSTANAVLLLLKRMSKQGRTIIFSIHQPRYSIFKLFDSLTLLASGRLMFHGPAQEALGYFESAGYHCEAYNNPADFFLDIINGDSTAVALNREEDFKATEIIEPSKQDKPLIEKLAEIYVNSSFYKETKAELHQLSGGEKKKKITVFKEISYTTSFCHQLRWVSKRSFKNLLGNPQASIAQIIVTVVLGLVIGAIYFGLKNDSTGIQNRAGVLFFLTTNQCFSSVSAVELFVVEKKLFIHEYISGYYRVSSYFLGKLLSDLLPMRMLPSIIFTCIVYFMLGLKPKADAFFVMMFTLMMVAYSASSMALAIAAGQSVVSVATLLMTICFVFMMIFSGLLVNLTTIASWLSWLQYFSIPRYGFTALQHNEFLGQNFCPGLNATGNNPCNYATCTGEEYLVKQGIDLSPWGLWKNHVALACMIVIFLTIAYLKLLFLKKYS

[2] = biological target: ATP-dependent translocase ABCB1 (Homo sapiens, UniProt P08183); assay: Inhibition of ABCB1 (unknown origin) ATPase activity assessed as decrease in luminescence by firefly luciferase reporter assay
HEK293 [3] = assay: Reversal of ABCG2 mediated mitoxantrone resistance in human HEK293 overexpressing ABCG2 assessed as decrease in survival rate at 1.25 to 5 uM preincubated for 1 hrs followed by mitoxantrone addition and measured after 72 hrs by SRB assay; format: functional, cell-based; conditions: dose 1.25-5 µM, time 73.0 hrs
HEK293 [4] = assay: Reversal of ABCG2 mediated mitoxantrone resistance in human HEK293 assessed as decrease in survival rate at 1.25 to 5 uM preincubated for 1 hrs followed by mitoxantrone addition and measured after 72 hrs by SRB assay; format: functional, cell-based; conditions: dose 1.25-5 µM, time 73.0 hrs
[5] = Cytotoxicity against human HEK293 cells expressing ABCG2 assessed as reduction in cell viability incubated for 72 hrs by SRB assay; format: toxicity, cell-based
[6] = Cytotoxicity against human HEK293 cells assessed as reduction in cell viability incubated for 72 hrs by SRB assay; format: toxicity, cell-based
K562/A02 [7] = assay: Reversal of ABCB1 mediated adriamycin resistance in human K562/A02 cells overexpressing ABCB1 assessed as reduction in survival rate at 5 uM preincubated for 1 hrs followed by adriamycin addition and measured after 72 hrs by MTS assay; format: functional
[8] = Cytotoxicity against human K562/A02 cells overexpressing ABCB1 assessed as decrease in cell survival rate incubated for 72 hrs by MTS assay; format: toxicity, cell-based
K562 [9] = assay: Reversal of ABCB1 mediated adriamycin resistance in human K562 cells assessed as reduction in survival rate at 5 uM preincubated for 1 hrs followed by adriamycin addition and measured after 72 hrs by MTS assay; format: functional, cell-based; conditions: time 73.0 hrs
K562 [10] = assay: Reversal of ABCB1 mediated adriamycin resistance in human K562 cells assessed as reduction in survival rate at 1 uM preincubated for 1 hrs followed by adriamycin addition and measured after 72 hrs by MTS assay; format: functional, cell-based; conditions: time 73.0 hrs
K562/A02 [11] = assay: Reversal of ABCB1 mediated adriamycin resistance in human K562/A02 cells overexpressing ABCB1 assessed as reduction in survival rate at 1 uM preincubated for 1 hrs followed by adriamycin addition and measured after 72 hrs by MTS assay; format: functional
K562/A02 [12] = assay: Cytotoxicity against human K562/A02 cells overexpressing ABCB1 assessed as decrease in cell survival rate at 5 uM incubated for 72 hrs by MTS assay; format: toxicity, cell-based; conditions: k562/a02, 72 h
K562 [13] = assay: Cytotoxicity against human K562 cells assessed as decrease in cell survival rate at 5 uM incubated for 72 hrs by MTS assay; format: toxicity, cell-based; conditions: k562, 72 h
K562/A02 [14] = assay: Reversal of ABCB1 mediated adriamycin resistance in human K562/A02 overexpressing ABCB1 assessed as decrease in survival rate at 1.25 to 5 uM preincubated for 1 hrs followed by adriamycin addition and measured after 72 hrs by MTS assay; format: functional, cell-based; conditions: dose 1.25-5 µM, time 73.0 hrs
[15] = Cytotoxicity against human K562 cells assessed as decrease in cell survival rate incubated for 72 hrs by MTS assay; format: toxicity, cell-based
K562 [16] = assay: Reversal of ABCB1 mediated adriamycin resistance in human K562 assessed as decrease in survival rate at 1.25 to 5 uM preincubated for 1 hrs followed by adriamycin addition and measured after 72 hrs by MTS assay; format: functional, cell-based; conditions: dose 1.25-5 µM, time 73.0 hrs
K562/A02 [17] = assay: Reversal of ABCB1 mediated adriamycin resistance in human K562/A02 overexpressing ABCB1 assessed as decrease in survival rate at 5 uM preincubated for 1 hrs followed by adriamycin addition and measured after 72 hrs by MTS assay; format: functional

ATP-dependent translocase ABCB1, sequence (P08183 whole entry): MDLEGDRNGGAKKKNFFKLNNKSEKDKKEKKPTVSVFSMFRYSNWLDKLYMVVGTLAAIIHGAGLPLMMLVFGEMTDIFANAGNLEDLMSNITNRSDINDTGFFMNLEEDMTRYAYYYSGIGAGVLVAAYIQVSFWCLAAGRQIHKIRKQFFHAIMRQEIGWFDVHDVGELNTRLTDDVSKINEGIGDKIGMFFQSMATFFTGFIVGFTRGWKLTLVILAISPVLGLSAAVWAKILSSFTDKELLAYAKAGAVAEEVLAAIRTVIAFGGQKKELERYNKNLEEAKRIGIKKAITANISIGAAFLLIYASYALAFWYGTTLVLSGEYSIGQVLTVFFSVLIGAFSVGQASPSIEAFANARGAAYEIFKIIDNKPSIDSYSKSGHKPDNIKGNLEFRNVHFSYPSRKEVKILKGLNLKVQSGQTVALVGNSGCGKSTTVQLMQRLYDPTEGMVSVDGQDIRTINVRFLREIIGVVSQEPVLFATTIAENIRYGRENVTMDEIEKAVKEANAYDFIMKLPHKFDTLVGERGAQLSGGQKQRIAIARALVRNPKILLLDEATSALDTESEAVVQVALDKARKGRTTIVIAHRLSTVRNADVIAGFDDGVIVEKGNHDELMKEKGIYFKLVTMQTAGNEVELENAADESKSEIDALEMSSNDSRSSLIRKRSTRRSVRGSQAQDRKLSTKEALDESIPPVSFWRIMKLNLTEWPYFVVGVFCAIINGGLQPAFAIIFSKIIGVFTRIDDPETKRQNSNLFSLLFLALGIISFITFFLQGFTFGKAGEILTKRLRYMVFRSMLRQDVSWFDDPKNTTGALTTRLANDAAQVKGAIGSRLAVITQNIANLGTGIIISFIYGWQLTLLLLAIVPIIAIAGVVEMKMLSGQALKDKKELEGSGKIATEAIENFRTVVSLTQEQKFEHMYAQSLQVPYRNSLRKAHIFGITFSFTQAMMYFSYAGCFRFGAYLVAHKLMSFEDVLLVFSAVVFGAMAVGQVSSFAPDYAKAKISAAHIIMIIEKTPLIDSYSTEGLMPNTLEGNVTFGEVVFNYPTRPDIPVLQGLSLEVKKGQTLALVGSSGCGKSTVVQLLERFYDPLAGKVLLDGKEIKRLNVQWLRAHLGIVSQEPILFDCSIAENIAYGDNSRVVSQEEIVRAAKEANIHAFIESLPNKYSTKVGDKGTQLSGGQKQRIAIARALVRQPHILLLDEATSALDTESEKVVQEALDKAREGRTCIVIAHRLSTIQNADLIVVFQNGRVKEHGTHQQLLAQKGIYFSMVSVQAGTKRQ

Row | Compound | IC50 at 72 h [8] [µM] | Activity (K562 [9]) | Activity (K562 [10]) | Activity (K562/A02 [12]) | Activity (K562 [13]) | Activity (K562/A02 [14]) | IC50 at 72 h [15] [µM] | Activity (K562 [16]) | Activity (K562/A02 [7]; time 73.0 hrs) | Activity (K562/A02 [11]; time 73.0 hrs) | also measured
1 | SODIUM VANADATE | – | – | – | – | – | – | – | – | – | – | inhibition (INH) [1]: Active; inhibition (INH) [2]: Active
2 | CC(=O)N1CCN(c2ccc(OCC3COC(Cn4ccnc4)(c4ccc(Cl)cc4Cl)O3)cc2)CC1 (stereo not drawn) | – | – | – | – | – | – | – | – | – | – | Activity (HEK293 [3]): Active; Activity (HEK293 [4]): inactive
3 | O=C1c2c(O)ccc(O)c2C(=O)c2c(NCCNCCO)ccc(NCCNCCO)c21 [MITOXANTRONE] | – | – | – | – | – | – | – | – | – | – | IC50 at 72 h [5]: 1.72 µM; IC50 at 72 h [6]: 0.04 µM
4 | COc1cc2c(cc1OC)CN(CC(=O)Nc1ccc(-c3nc4ccccn4c3CN3CCc4cc(OC)c(OC)cc4C3)cc1)CC2 | > 100 | inactive | inactive | Non-Toxic | Non-Toxic | Active | > 100 | inactive | – | – | Activity (K562/A02 [7]; time 73 hrs): 39%; Activity (K562/A02 [11]; time 73 hrs): 61%
5 | COc1ccc(/C=C/C(=O)Nc2ccc(-c3nc4ccccn4c3CN3CCN(c4ccccc4)CC3)cc2)cc1 | > 100 | – | – | – | – | Active | > 100 | inactive | – | – | Activity (HEK293 [3]): Active; IC50 at 72 h [5]: 12.4 µM; Activity (K562/A02 [17]): <30%; IC50 at 72 h [6]: 21 µM; Activity (HEK293 [4]): inactive
6 | COc1cc2c(cc1OC)CN(CC(=O)Nc1ccc(-c3nc4ccccn4c3CNCc3ccccc3)cc1)CC2 | – | inactive | inactive | 59.82% | Non-Toxic | – | – | – | Active | Active | –
7 | COc1cc2c(cc1OC)CN(CC(=O)Nc1ccc(-c3nc4ccccn4c3CN3CCCCC3)cc1)CC2 | – | Active | Active | Non-Toxic | Non-Toxic | – | – | – | Active | Active | –
8 | CCN(CC)Cc1c(-c2ccc(NC(=O)CN3CCc4cc(OC)c(OC)cc4C3)cc2)nc2ccccn12 | – | inactive | inactive | Non-Toxic | Non-Toxic | – | – | – | Active | Active | –
9 | COc1cc2c(cc1OC)CN(CC(=O)Nc1ccc(-c3nc4ccccn4c3CN3CCN(c4ccccc4)CC3)cc1)CC2 | > 100 | inactive | inactive | Non-Toxic | Non-Toxic | Active | > 100 | inactive | – | – | Activity (K562/A02 [7]; time 73 hrs): 33%; Activity (K562/A02 [11]; time 73 hrs): 59%

— ChEMBL document CHEMBL5380807, “Imidazo[1,2-a]Pyridine Derivatives as Novel Dual-Target Inhibitors of ABCB1 and ABCG2 for Reversing Multidrug Resistance” (J Med Chem, 2023)
